Source: BindingDB's records for doi:10.1016/j.bmcl.2010.11.084 (Merck Frosst Centre For Therapeutic Research, 2011)

experiment: Antagonist activity at CRTH2 in human eosinophil assessed as effect of cellular shape change by EOS assay

| Compound | IC50 |
| --- | --- |
| CN(C(=O)C1(c2ccc(F)cc2)CC1(C)C)[C@@H]1CCc2c(CC(=O)O)c3cccnc3n2C1 (stereo partly drawn) [2-((8R)-8-(1-(4-fluorophenyl)-N,2,2-trimethylcyclopropanecarboxamido)-6,7,8,9-tetrahydropyrido[3,2-b]indolizin-5-yl)acetic acid] | 2.4 nM |
| C[C@@H](C(=O)N(C)[C@@H]1CCc2c(CC(=O)O)c3cccnc3n2C1)c1ccc(F)cc1 [2-((R)-8-((R)-2-(4-fluorophenyl)-N-methylpropanamido)-6,7,8,9-tetrahydropyrido[3,2-b]indolizin-5-yl)acetic acid] | 1.2 nM |
| CN(C(=O)C1(c2ccc(F)cc2)CCC1)[C@@H]1CCc2c(CC(=O)O)c3cccnc3n2C1 [(R)-2-(8-(1-(4-fluorophenyl)-N-methylcyclobutanecarboxamido)-6,7,8,9-tetrahydropyrido[3,2-b]indolizin-5-yl)acetic acid] | 1.2 nM |
| CN(C(=O)C1(c2ccc(F)cc2)CCCC1)[C@@H]1CCc2c(CC(=O)O)c3cccnc3n2C1 [(R)-2-(8-(1-(4-fluorophenyl)-N-methylcyclopentanecarboxamido)-6,7,8,9-tetrahydropyrido[3,2-b]indolizin-5-yl)acetic acid] | 3.4 nM |
| CN(C(=O)C1(c2ccc(F)cc2)CC1)[C@@H]1CCc2c(CC(=O)O)c3cccnc3n2C1 [(R)-2-(8-(1-(4-fluorophenyl)-N-methylcyclopropanecarboxamido)-6,7,8,9-tetrahydropyrido[3,2-b]indolizin-5-yl)acetic acid] | 3.1 nM |

Continued, values first:

| IC50 | Compound |
| --- | --- |
| 2.3 nM | CN(C(=O)C(C)(C)c1ccc(F)cc1)[C@@H]1CCc2c(CC(=O)O)c3cccnc3n2C1 [(R)-2-(8-(2-(4-fluorophenyl)-N,2-dimethylpropanamido)-6,7,8,9-tetrahydropyrido[3,2-b]indolizin-5-yl)acetic acid] |
| 16 nM | CN([C@@H]1CCc2c(CC(=O)O)c3ccc(-c4ccc(F)cc4)nc3n2C1)S(=O)(=O)c1ccc(F)cc1 [(R)-2-(8-(4-fluoro-N-methylphenylsulfonamido)-2-(4-fluorophenyl)-6,7,8,9-tetrahydropyrido[3,2-b]indolizin-5-yl)acetic acid] |
| 7 nM | CN([C@@H]1CCc2c(CC(=O)O)c3cccnc3n2C1)S(=O)(=O)c1ccc(F)cc1 [(R)-2-(8-(4-fluoro-N-methylphenylsulfonamido)-6,7,8,9-tetrahydropyrido[3,2-b]indolizin-5-yl)acetic acid] |
